According to the NIST ThermoML archive (doi:10.1021/je100089s):

Assay: xn = mol fraction of the nth substance listed
Conditions: Liquid, Vibrating tube method

OCCO [1,2-ethanediol] + C[S+](C)[O-]
mass density [kg/m3]
Conditions	101 kPa	10000 kPa	25000 kPa	50000 kPa	75000 kPa	100000 kPa
298.15 K, x2 = 0	–	–	–	–	–	1145.51
298.15 K, x2 = 0.0181	–	–	–	–	–	1145.75
298.15 K, x2 = 0.0403	–	–	–	–	–	1145.93
298.15 K, x2 = 0.0701	–	–	–	–	–	1146.24
298.15 K, x2 = 0.1097	–	–	–	–	1138.51	1146.54
298.15 K, x2 = 0.1408	–	–	–	–	1138.73	1146.83
298.15 K, x2 = 0.1934	–	–	–	–	1138.98	1147.29
298.15 K, x2 = 0.234	–	–	–	–	1139.19	1147.46
298.15 K, x2 = 0.3244	–	–	–	–	1139.38	1147.77
298.15 K, x2 = 0.3764	–	–	–	–	1139.43	1147.93
298.15 K, x2 = 0.4429	–	–	–	–	1139.4	1148.01
298.15 K, x2 = 0.4892	–	–	–	–	1139.31	1147.94
298.15 K, x2 = 0.5654	–	–	–	–	1139.23	1147.85
298.15 K, x2 = 0.6946	–	–	–	–	1138.74	1147.55
298.15 K, x2 = 0.8142	–	–	–	–	1137.98	1146.87
298.15 K, x2 = 0.9266	–	–	–	–	1137.07	1146.03
308.15 K, x2 = 0	–	1107.05	1112.97	1122.28	1131.41	1139.57
308.15 K, x2 = 0.0181	–	1107.03	1113.01	1122.41	1131.6	1139.78
308.15 K, x2 = 0.0403	–	1106.95	1112.98	1122.46	1131.72	1139.87
308.15 K, x2 = 0.07007	1102.45	–	–	–	–	–
308.15 K, x2 = 0.0701	–	1106.68	1112.81	1122.47	1131.86	1140.08
308.15 K, x2 = 0.1097	1102.12	1106.18	1112.54	1122.52	1132.17	1140.24
308.15 K, x2 = 0.1408	1101.88	1105.87	1112.37	1122.47	1132.33	1140.54
308.15 K, x2 = 0.1934	1101.33	1105.29	1111.97	1122.32	1132.37	1140.74
308.15 K, x2 = 0.234	1100.86	1104.74	1111.63	1122.23	1132.39	1140.88
308.15 K, x2 = 0.3244	1099.65	1103.53	1110.76	1121.85	1132.45	1140.94
308.15 K, x2 = 0.3764	1098.89	–	–	1121.58	1132.41	1140.97
308.15 K, x2 = 0.4429	1097.76	1101.57	1109.29	1121.09	1132.2	1140.85
308.15 K, x2 = 0.4892	1096.94	1100.74	1108.61	1120.71	1132.04	1140.71
308.15 K, x2 = 0.5654	–	1099.47	1107.59	1120.07	1131.68	1140.47
308.15 K, x2 = 0.6298	1094.18	–	–	–	–	–
308.15 K, x2 = 0.6946	1092.91	1097.4	1105.69	1118.74	1130.89	1139.72
308.15 K, x2 = 0.8142	1090.07	1094.91	1103.81	–	1129.86	1138.6
308.15 K, x2 = 0.9266	1087.25	1092.99	1101.96	1115.8	1128.85	1137.41
308.15 K, x2 = 0.9577	1086.43	–	–	–	–	–
308.15 K, x2 = 0.9836	1085.76	1091.87	1100.89	1115.04	1128.14	1136.73
308.15 K, x2 = 0.992	1085.53	–	–	–	–	–
308.15 K, x2 = 0.9968	1085.39	–	–	–	–	–
323.15 K, x2 = 0	1092.12	–	–	1112.75	1122.55	1130.66
323.15 K, x2 = 0.00452	1092.05	–	–	–	–	–
323.15 K, x2 = 0.00721	1092.03	–	–	–	–	–
323.15 K, x2 = 0.0181	–	–	–	1112.77	1122.62	1130.77
323.15 K, x2 = 0.01811	1091.95	–	–	–	–	–
323.15 K, x2 = 0.03033	1091.83	–	–	–	–	–
323.15 K, x2 = 0.04027	1091.72	–	–	–	–	–
323.15 K, x2 = 0.0403	–	–	–	1112.8	1122.72	1130.87
323.15 K, x2 = 0.07007	1091.39	–	–	–	–	–
323.15 K, x2 = 0.0701	–	–	1102.37	1112.82	1122.84	1130.96
323.15 K, x2 = 0.1097	1090.85	1095.4	1102.05	1112.71	1122.87	1131
323.15 K, x2 = 0.1408	1090.44	1095	1101.79	1112.64	1122.91	1131.06
323.15 K, x2 = 0.1934	1089.61	1094.25	1101.25	1112.4	1122.85	1130.99
323.15 K, x2 = 0.234	–	1093.65	1100.8	1112.23	1122.77	1130.94
323.15 K, x2 = 0.3244	1087.33	1092.16	1099.69	1111.61	1122.44	1130.63
323.15 K, x2 = 0.3764	1086.33	1091.26	1098.98	1111.18	1122.18	1130.38
323.15 K, x2 = 0.4429	1084.93	1090	1097.94	1110.52	1121.69	1129.92
323.15 K, x2 = 0.4892	1083.92	–	1097.2	–	1121.34	1129.57
323.15 K, x2 = 0.5654	1082.23	1087.55	–	1109.22	1120.75	1128.99
323.15 K, x2 = 0.6298	1080.61	–	–	–	–	–
323.15 K, x2 = 0.6946	1079.07	1084.73	1093.6	1107.58	1119.48	1127.72
323.15 K, x2 = 0.8142	1075.74	1081.78	1091.06	1105.68	1117.9	1126.09
323.15 K, x2 = 0.867	1074.15	–	–	–	–	–
323.15 K, x2 = 0.9266	1072.5	1078.85	–	1103.78	1116.27	1124.43
323.15 K, x2 = 0.9577	1071.55	–	–	–	–	–
323.15 K, x2 = 0.9836	1070.76	1077.32	1087.21	–	1115.35	1123.49
323.15 K, x2 = 0.992	1070.5	–	–	–	–	–
323.15 K, x2 = 0.9968	1070.35	–	–	–	–	–
